In patent publication US20130109698A1, “Small Molecule Inhibitors of Functions of the HIV-1 Matrix Protein” (priority 2010, published 2013):
pIC50: −log10 of the molar value.

Key:
Assay type in all cases: cell-based
[1] = system: Chikungunya; experiment: Antiviral spectrum: cytopathic effect assay
[2] = system: influenza H1N1; experiment: Antiviral spectrum: cytopathic effect assay; conditions: influenza H1N1, up to 100 μM
[3] = system: Japanese encephalitis; experiment: Antiviral spectrum: cytopathic effect assay
[4] = system: Dengue serotypes 1-4; experiment: Antiviral spectrum: cytopathic effect assay
[5] = system: HIV-1 93BR020 Subtype F; experiment: Anti-HIV efficacy in human PBMCs; conditions: for pIC50 / IC90: Human immunodeficiency virus 1, PBMC, PBMCs
Method: (§1) HIV human peripheral blood mononuclear cell (PBMC) assays were performed as described previously (Lanier et al., 2010, Antimicrob Agents Chemother 54:2901-2909 and Ptak et al., 2008, Antimicrob Agents Chemother 52:1302-1317). Briefly, fresh PBMCs, seronegative for HIV and hepatitis B virus (HBV), were isolated from blood samples of the screened donors (Biological Specialty Corporation, Colmar, Pa.) by using lymphocyte separation medium (LSM; density, 1.078±0.002 g/ml; Cellgro; Mediatech, Inc.) by following the manufacturer's instructions. Cells were stimulated by incubation in 4 μg/mL phytohemagglutinin (PHA; Sigma) for 48 to 72 h. Mitogenic stimulation was maintained by the addition of 20 U/mL recombinant human interleukin-2 (rhIL-2; R&D Systems, Inc.) to the culture medium. PHA-stimulated PBMCs from at least two donors were pooled, diluted in fresh medium, and added to 96-well plates at 5×10^4 cells/well. Cells were infected (final multiplicity of infection [MOI] of ≅0.1) in the presence of nine different concentrations of test compounds (triplicate wells/concentration) and incubated for 7 days. To determine the level of virus inhibition, cell-free supernatant samples were collected for analysis of reverse transcriptase activity (Buckheit et al., 1991, AIDS Res Hum Retroviruses 7:295-302). Following removal of supernatant samples, compound cytotoxicity was measured by the addition of 3-(4,5-dimethylthiazol-2-yl)-5-(3-carboxymethoxy-phenyl)-2-(4-sulfophenyl)-2H-tetrazolium (MTS; CellTiter 96 reagent; Promega) by following the manufacturer's instructions.

[6] = system: HIV-1 BCF02 Group O; experiment: Anti-HIV efficacy in human PBMCs; conditions: for pIC50 / IC90: Human immunodeficiency virus 1, PBMC; for pIC50 / IC90 / Antiviral index (TC50/IC50): BCF02 Group O
Method: as §1

[7] = system: HIV-1 G3 Subtype G; experiment: Anti-HIV efficacy in human PBMCs; conditions: for Antiviral index (TC50/IC50): G3 Subtype G; for pIC50 / IC90: Human immunodeficiency virus 1, PBMC
Method: as §1

[8] = system: HIV-1 89BZ167 Subtype B; experiment: Anti-HIV efficacy in human PBMCs; conditions: for pIC50 / IC90: Human immunodeficiency virus 1, PBMC, PBMCs
Method: as §1

[9] = system: HIV-1 92BR025 Subtype C; experiment: Anti-HIV efficacy in human PBMCs; conditions: for pIC50 / IC90: Human immunodeficiency virus 1, PBMC, PBMCs
Method: as §1

[10] = system: HIV-1 92UG024 Subtype D; experiment: Anti-HIV efficacy in human PBMCs; conditions: for pIC50 / IC90: Human immunodeficiency virus 1, PBMC, PBMCs
Method: as §1

[11] = system: HIV-1 CMU08 Subtype E; experiment: Anti-HIV efficacy in human PBMCs; conditions: for pIC50 / IC90: Human immunodeficiency virus 1, PBMC, PBMCs
Method: as §1

[12] = system: HIV-1 92UG031 Subtype A; experiment: Anti-HIV efficacy in human PBMCs; conditions: for pIC50 / IC90: Human immunodeficiency virus 1, PBMC, PBMCs
Method: as §1

[13] = system: HIV-1 93IN101; experiment: Anti-HIV efficacy in human PBMCs, reverse transcriptase activity; conditions: HIV-1 93IN101, PBMCs; for pIC50 / IC90: Human immunodeficiency virus 1, PBMC
Method: as §1

[14] = system: HIV-1 92BR030; experiment: as above; conditions: HIV-1 92BR030, PBMCs; for pIC50 / IC90: Human immunodeficiency virus 1, PBMC
Method: as §1

SMILES	inhibitory effects on replication [1]	inhibitory effects on replication [2]	inhibitory effects on replication [3]	inhibitory effects on replication [4]	Antiviral index (TC50/IC50) [5]	pIC50 [5]	IC90 [5] [µM]	pIC50 ([6]; PBMCs)	IC90 ([6]; PBMCs) [µM]	Antiviral index (TC50/IC50) [7]	pIC50 [7]	IC90 [7] [µM]	Antiviral index (TC50/IC50) [8]	pIC50 [8]	IC90 [8] [µM]	Antiviral index (TC50/IC50) [9]	pIC50 [9]	IC90 [9] [µM]	Antiviral index (TC50/IC50) [10]	pIC50 [10]	also measured
Cc1ccc(NC(=O)CN2CCN(Cc3nc(-c4ccc(F)cc4)no3)CC2)cc1 [CMPD-7, 2-(4-((3-(4-fluorophenyl)-1,2,4-oxadiazol-5-yl)methyl)piperazin-1-yl)-N-(p-tolyl)acetamide]	no inhibitory effects	no inhibitory effects	no inhibitory effects	no inhibitory effects	>6.42	4.81	> 100	< 4.00	> 100	>9.36	4.97	30.2	>6.97	4.84	> 100	>9.51	4.98	> 100	>11.3	5.05	activity against the group O isolate HIV-1BCF02, in words ([6]; over the concentrations tested, PBMCs): no activity; IC90 [10]: 35.2 µM; Antiviral index (TC50/IC50) [11]: >10.4; pIC50 [11]: 5.02; IC90 [11]: 99.7 µM; Antiviral index (TC50/IC50) [12]: >6.72; pIC50 [12]: 4.83; IC90 [12]: > 100 µM; Antiviral index (TC50/IC50) [13]: > 6.13; pIC50 [13]: 4.79; IC90 [13]: > 100 µM; Antiviral index (TC50/IC50) [14]: > 10.72; pIC50 [14]: 5.03; IC90 [14]: > 100 µM
O=C(CNC(=O)COc1ccccc1)NCc1ccc(C(=O)N2CCCCC2)cc1 [CMPD-14, N-(2-oxo-2-((4-(piperidine-1-carbonyl)benzyl)amino)ethyl)-2-phenoxyacetamide]	no inhibitory effects	no inhibitory effects	no inhibitory effects	no inhibitory effects	>4.93	4.69	32.6	4.66	45	>4.88	4.69	29.2	>4.66	4.67	40.7	>4.24	4.63	96.6	>5.41	4.73	Antiviral index (TC50/IC50) [6]: >4.57; IC90 [10]: 29.5 µM; Antiviral index (TC50/IC50) [11]: >6.27; pIC50 [11]: 4.80; IC90 [11]: 59.5 µM; Antiviral index (TC50/IC50) [12]: >5.40; pIC50 [12]: 4.73; IC90 [12]: 42.2 µM; Antiviral index (TC50/IC50) [13]: > 5.56; pIC50 [13]: 4.74; IC90 [13]: 62.1 µM; Antiviral index (TC50/IC50) [14]: > 4.51; pIC50 [14]: 4.65; IC90 [14]: 68.6 µM
CCOc1ccc(NC(=O)Cc2cn3ccsc3n2)cc1S(=O)(=O)N1CCCCC1 [CMPD-18, N-(4-ethoxy-3-(piperidin-1-ylsulfonyl)phenyl)-2-(imidazo[2,1-b]thiazol-6-yl)acetamide]	no inhibitory effects	no inhibitory effects	no inhibitory effects	no inhibitory effects	>3.39	4.73	54.1	4.57	75.6	>10.9	5.24	21	>2.94	4.67	71.8	>2.79	4.65	75	>6.02	4.98	Antiviral index (TC50/IC50) [6]: >2.30; IC90 [10]: 25.9 µM; Antiviral index (TC50/IC50) [11]: >5.00; pIC50 [11]: 4.80; IC90 [11]: 95 µM; Antiviral index (TC50/IC50) [12]: >3.98; pIC50 [12]: 4.80; IC90 [12]: 64.7 µM; Antiviral index (TC50/IC50) [13]: 3.00; pIC50 [13]: 4.51; IC90 [13]: 85.2 µM; Antiviral index (TC50/IC50) [14]: 3.95; pIC50 [14]: 4.63; IC90 [14]: 94 µM
